Measurements: US7053219B2, “Isoxazolopyridone derivatives and their use” (Banyu Pharmaceutical Co. Ltd., priority 2001, dated 2006)

Target: T1, rat metabotropic glutamic acid receptor 7a (Rattus norvegicus, UniProt P35400)
T1 construct: expressed in transfected cells
Test: Metabotropic glutamic acid receptor-antagonistic effect (Test Method 1, [Ca2+]i by FLIPR)
Type: cell-based
Details: CHO cells stably expressing rat metabotropic glutamic acid receptor 7a and Gα15, agonist 0.5 mM L-AP4, test compound given 5 minutes before agonist, [Ca2+]i with Fluo-3AM
From the text: (Test Method 1) Metabotropic Glutamic Acid Receptor-Antagonistic Effect:
Using LIPOFECTAMINE (by Gibco BRL), CHO cells were transfected with a CDNA of rat metabotropic glutamic acid receptor 7a, which is described in J. Biol. Chem., N. Okamoto et al., Vol. 269, pp. 1231–1236, 1994, to give a cell strain capable of stably expressing rat metabotropic glutamic acid receptor 7a. The metabotropic glutamic acid receptor 7a-transfected CHO cells were further transfected with a Gα15 cDNA, which is describedin J. Biol. Chem., S. Offermanns, M. I. Simon, Vol. 270, pp. 15175–15180, 1995, to give a cell strain capable of stably expressing rat metabotropic glutamic acid receptor 7a and Gα15. The CHO cells capable of stably expressing metabotropic glutamic acid receptor 7a and Gα15 were incubated along with Fluo-3AM (final concentration 4 μM) at 37° C. for 1 hour, and then washed 4 times with an assay buffer (1×Hanks' salt with 2.5 mM probenecid and 20 mM HEPES (N-2-hydroxyethylpiperazine-N′-2-ethanesulfonic acid), and the resulting cells were assayed for [Ca^2+]i. For the determination of [Ca^2+]i, used was a fluorimetric imaging plate reader (FLIPR by Molecular Device). Concretely, using an agonist, 0.5 mM L-AP4, the capacity of the antagonistic substance was measured.
The Hanks' salt was prepared by 10-fold diluting a Hanks' balanced solution (Gibuco BRL 14065-056 10×). […]

T1 sequence (P35400 35-915): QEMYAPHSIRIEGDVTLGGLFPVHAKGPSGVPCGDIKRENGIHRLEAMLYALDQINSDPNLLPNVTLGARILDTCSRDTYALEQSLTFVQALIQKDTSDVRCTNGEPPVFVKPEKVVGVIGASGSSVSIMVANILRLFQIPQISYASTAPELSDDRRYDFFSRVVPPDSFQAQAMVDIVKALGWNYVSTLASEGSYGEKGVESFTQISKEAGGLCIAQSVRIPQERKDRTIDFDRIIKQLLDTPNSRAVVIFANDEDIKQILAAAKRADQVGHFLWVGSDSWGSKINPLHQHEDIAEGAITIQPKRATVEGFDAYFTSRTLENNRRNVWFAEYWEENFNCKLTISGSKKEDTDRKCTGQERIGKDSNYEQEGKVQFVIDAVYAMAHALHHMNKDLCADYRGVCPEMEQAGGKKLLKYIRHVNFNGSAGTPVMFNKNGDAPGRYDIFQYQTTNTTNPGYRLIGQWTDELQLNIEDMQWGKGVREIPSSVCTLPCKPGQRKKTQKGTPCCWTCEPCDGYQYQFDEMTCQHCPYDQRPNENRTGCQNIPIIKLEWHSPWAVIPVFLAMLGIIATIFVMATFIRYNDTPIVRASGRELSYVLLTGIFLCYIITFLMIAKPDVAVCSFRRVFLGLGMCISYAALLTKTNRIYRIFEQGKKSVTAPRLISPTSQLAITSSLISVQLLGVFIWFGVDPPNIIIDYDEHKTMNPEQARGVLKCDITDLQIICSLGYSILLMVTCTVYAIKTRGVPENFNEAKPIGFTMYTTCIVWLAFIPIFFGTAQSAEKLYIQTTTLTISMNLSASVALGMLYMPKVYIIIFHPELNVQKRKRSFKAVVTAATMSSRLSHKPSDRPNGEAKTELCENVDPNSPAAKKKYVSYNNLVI

IC50 | SMILES
7.65 nM | COc1ccccc1-c1noc2cc(-c3ccccc3)n(C)c(=O)c12 [Production Example 8, 5-methyl-3-(2-methoxyphenyl)-6-phenylisoxazolo[4,5c]pyridin-4(5H)-one]
10.4 nM | Cn1c(-c2cccnc2)cc2onc(-c3ccncc3)c2c1=O [Production Example 32, 5-methyl-6-pyridin-3-yl-3-pyridin-4-yl-isoxazolo[4,5-c]-pyridin-4(5H)-one]
